# According to patent publication US20220282217A1, “COMPOSITIONS AND METHODS FOR PREPARING T CELL COMPOSITIONS AND USES THEREOF” (priority 2019, published 2022):
# Where two headings read alike, the source gives them in different places. Where a SMILES comes first, the peptide text is derived from it.
# Experiments:
# HLA-A11.01 [1] = molecular target: HLA-A11.01 (Homo sapiens, UniProt P04439, A114D/D185E/E176A/F33Y/L180Q/S129P/T187R); experiment: Class I MHC peptide binding affinity (displacement of radiolabeled reference peptide)
# HLA-A03.01 [2] = molecular target: T1, HLA-A03.01 (Homo sapiens, UniProt P04439); experiment: Class I MHC peptide binding stability (pMHC-I dissociation, 125I-labeled light chain); parameters: made in house; host or cells: E. coli; settings: HLA Allele A03.01; for Stability (half-life (hr.)): BTK C481S peptide
# HLA-A01.01 [3] = molecular target: T2, HLA-A01.01 (Homo sapiens, UniProt P04439, A114D/A174V/A182V/D101N/E190D/Q94H/R68K/S129P/V100A/V91M/W191G); experiment: as above
# T2 construct: made in house; host or cells: E. coli
# HLA-A03.01 [4] = molecular target: T1, HLA-A03.01; experiment: Class I MHC peptide binding affinity (displacement of radiolabeled reference peptide)
# HLA-A01.01 [5] = molecular target: HLA-A01.01 (Homo sapiens, UniProt P04439, A114D/A174V/A182V/D101N/D185E/E176A/E190D/L180R/Q94H/R68K/S129P/T187R/V100A/V91M/W191G); experiment: as above
# Outline: (§1)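 Displacement format in which varying amounts of peptide compete for 2 days with a radiolabeled reference ligand prebound to class I MHC, residual complex-associated label being measured after gel-filtration separation.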
# CD8+ T cells = experiment: Ex vivo induction of antigen-specific CD8 T cells (FLT3L-treated PBMCs), MHC tetramer/multimer readout; format: cell-based, human; parameters: key to Epitope prefixed with '*': positive CD8+ T cell response: The epitopes that are prefixed with ‘*’, were shown to induce positive CD8+ T cell response in either one or both the donors; key to Immunogenicity (#donors/2): positive CD8+ T cell response in either one or both the donors (marked as 1 or 2 in column 6 respectively); positive CD8+ T cell response in either one or both the donors (marked as 1 or 2 in column 6 respectively); settings: HLA-A02:01
# Method: Step 1: Plate 5 million PBMCs (or cells of interest) in each well of 24 well plate with FLT3L in 2 mL AIM V media Step 2: Peptide loading and maturation—in AIMV 1. Mix peptide pool of interest (except for no peptide condition) with PBMCs (or cells of interest) in respective wells.
# 3. Mix Maturation cocktail (including TNF-α, IL-1β, PGE1, and IL-7) to each well after incubation. Step 3: Add human serum to each well at a final concentration of 10% by volume and mix. Step 4: Replace the media with fresh RPMI+10% HS media supplemented with IL7+IL15. Step 5: Replace the media with fresh 20/80 media supplemented with IL7+IL15 during the period of incubation every 1-6 days. Step 6: Plate 5 million PBMCs (or cells of interest) in each well of new 6-well plate with FLT3L in 2 ml AIM V media Step 7: Peptide loading and maturation for re-stimulation—(new plates) 1. Mix peptide pool of interest (except for no peptide condition) with PBMCs (or cells of interest) in respective wells
# 1. […]
# MHC tetramers are purchased or manufactured on-site according to methods known by one of ordinary skill, and are used to measure peptide-specific T cell expansion in the immunogenicity assays. […] Cells are acquired on a LSR Fortessa (Becton Dickinson) instrument, and are analyzed by use of FlowJo software (Becton Dickinson). […]
# HLA-A24.02 = experiment: Class I MHC peptide binding stability (pMHC-I dissociation, 125I-labeled light chain); parameters: species or system human
# HLA-A02.01 [6] = molecular target: T3, HLA-A02.01 (Homo sapiens, UniProt P04439, D140Y/D185E/D98H/E176V/E277Q/G131W/G231S/I119V/I121R/I166T/I218V/N151K/N90K/P208A/P217A/Q86G/Q94H/R138H/R169H); experiment: as above
# T3 construct: made in house; host or cells: E. coli
# Class I MHC = Class I MHC peptide binding affinity, any other or unspecified HLA allele named in the row; parameters: species or system human; settings: EGFR T790M peptides; HLA allele B08.02
# HLA-A02.01 [7] = molecular target: HLA-A02.01 (Homo sapiens, UniProt P04439, D140Y/D185E/D98H/E176V/E277Q/G131W/G231S/I119V/I121R/I166T/I218V/L300P/L318F/N151K/N90K/P208A/P217A/Q86G/Q94H/R138H/R169H/T345S); experiment: Class I MHC peptide binding affinity (displacement of radiolabeled reference peptide)
# Outline: as §1
# HLA-B07.02 = HLA-B07.02 (Homo sapiens, UniProt P01889); experiment: as above; settings: Allele B07.02; read-out: Observed Affinity (IC50; (nM))
# [8] = molecular target: 293T cells transduced with GATA3 neoORF, expressing the HLA of interest (Homo sapiens, UniProt P01889); experiment: Presentation of GATA3 neoantigens: HLA-eluted peptides by targeted MS/MS (PRM) (Table 14); format: cell-based; settings: GATA3 neoORF transduced 293T cells expressing HLA-B*07:02 protein
# Method: (§2) To assess whether antigens could be processed and presented from the larger polypeptide context, peptides eluted from HLA molecules isolated from cells expressing the genes of interest were analyzed by tandem mass spectrometry (MS/MS).
# (§3) Between 50 and 700 million of the transduced cells expressing peptides encoded by the GATA3 neoORF sequence were cultured and peptides were eluted from HLA-peptide complexes using an acid wash. Eluted peptides were then analyzed by targeted MS/MS using PRM. Spectral comparison between peptides derived from GATA3 neoORF and corresponding synthetic peptides were performed to confirm each detection.
# [9] = molecular target: 293T cells transduced with GATA3 neoORF, expressing the HLA of interest (Homo sapiens, UniProt P04439); experiment: as above; format: cell-based; settings: GATA3 neoORF transduced 293T cells expressing HLA-A*03:01 protein
# Method: as §2, §3
# [10] = test system: 293T cells transduced with GATA3 neoORF, expressing the HLA of interest; experiment: as above; format: cell-based, human; settings: GATA3 neoORF transduced 293T cells expressing HLA-A*11:01 protein
# Method: as §2, §3
# HLA-A11.01 [11] = molecular target: T4, HLA-A11.01 (Homo sapiens, UniProt P04439, A114D/F33Y/S129P); experiment: Class I MHC peptide binding stability (pMHC-I dissociation, 125I-labeled light chain); settings: HLA Allele A11.01; time for half of the complexes to dissociate at 37° C.
# T4 construct: made in house; host or cells: E. coli
# [12] = BTK C481S peptide, HLA Allele A01.01
# [13] = allele A03.01, read-out: Observed Affinity (IC50, (nM))
# [14] = Observed Affinity (IC50, (nM)), allele A01.01
compound,measurement,setting,value
CSCC[C@H](NC(=O)[C@@H](N)Cc1ccc(O)cc1)C(=O)N[C@@H](C)C(=O)N[C@@H](CC(N)=O)C(=O)NCC(=O)N[C@@H](CO)C(=O)N[C@@H](CC(C)C)C(=O)N[C@@H](CC(C)C)C(=O)N[C@@H](CC(N)=O)C(=O)N[C@@H](Cc1ccc(O)cc1)C(=O)O (H-YMANGSLLNY-OH; N-terminus and C-terminus assumed),IC50,"HLA-A11.01 [1]; BTK C481S peptide, HLA Allele A11.01, read-out: Affinity",974 nM
same,Stability (half-life (hr.)),HLA-A03.01 [2],16.75 min
same,Stability (half-life (hr.)),HLA-A01.01 [3]; [12],51.97 min
same,IC50,"HLA-A03.01 [4]; BTK C481S peptide, HLA Allele A03.01, read-out: Affinity",95.9 nM
same,IC50,HLA-A03.01 [4]; [13],95.9 nM
same,IC50,"HLA-A01.01 [5]; BTK C481S peptide, HLA Allele A01.01, read-out: Affinity",13.2 nM
same,IC50,"HLA-A01.01 [5]; allele A01.01, read-out: Observed Affinity (IC50, (nM))",13.2 nM
CC[C@H](C)[C@H](NC(=O)[C@H](CC(C)C)NC(=O)[C@H](CCC(N)=O)NC(=O)[C@@H](NC(=O)[C@@H](NC(=O)[C@H](CO)NC(=O)[C@@H](NC(=O)[C@@H](N)CC(C)C)[C@@H](C)O)[C@@H](C)O)C(C)C)C(=O)N[C@@H](CCSC)C(=O)O (H-LTSTVQLIM-OH; N-terminus and C-terminus assumed),Stability (half-life (hr.)),"HLA-A01.01 [3]; EGFR T790M peptides, HLA allele A01.01",6.222 min
same,Kd,HLA-A01.01 [5],2890 nM
same,IC50,HLA-A01.01 [5]; [14],2890 nM
VLDCCISLL,Epitope prefixed with '*': positive CD8+ T cell response,CD8+ T cells; in either one or both the donors,*VLDCCISLL
same,Immunogenicity (#donors/2),"CD8+ T cells; positive CD8+ T cell response, number of donors out of 2",1
CC[C@H](C)[C@H](NC(=O)[C@H](CC(C)C)NC(=O)[C@@H](N)CCC(N)=O)C(=O)N[C@@H](CCSC)C(=O)N[C@@H](CCC(N)=O)C(=O)N[C@@H](CC(C)C)C(=O)N[C@@H](CCSC)C(=O)N1CCC[C@H]1C(=O)N[C@@H](Cc1ccccc1)C(=O)O,Stability (half-life (hr.)),"HLA-A24.02; EGFR T790M peptides, HLA allele A24.02",22.12 min
same,Stability (T1/2 (h)),HLA-A24.02; allele A24.02,0.4 h
same,Stability (half-life (hr.)),"HLA-A02.01 [6]; EGFR T790M peptides, HLA allele A02.01",20.44 min
same,Stability (T1/2 (h)),HLA-A02.01 [6]; allele A02.01,0.3 h
same,Kd,Class I MHC,5590 nM
same,Kd,"HLA-A02.01 [7]; EGFR T790M peptides, HLA allele A02.01, read-out: Affinity",193 nM
same,IC50,"HLA-A02.01 [7]; allele A02.01, read-out: Observed Affinity (IC50, (nM))",227 nM
CSCC[C@H](NC(=O)[C@H](Cc1ccc(O)cc1)NC(=O)CNC(=O)[C@H](CC(=O)O)NC(=O)[C@H](CCCNC(=N)N)NC(=O)[C@H](CCCCN)NC(=O)[C@@H]1CCCN1C(=O)[C@@H](N)CCCCN)C(=O)N[C@@H](Cc1ccccc1)C(=O)N[C@@H](CC(C)C)C(=O)O (H-KPKRDGYMFL-OH; N-terminus and C-terminus assumed),IC50,HLA-B07.02,98.1 nM
same,detected by mass spectrometry (peptide eluted from HLA-peptide complexes),[8],detected
CSCC[C@H](NC(=O)[C@H](Cc1ccc(O)cc1)NC(=O)CNC(=O)[C@H](CC(=O)O)NC(=O)[C@H](CCCNC(=N)N)NC(=O)[C@H](CCCCN)NC(=O)[C@@H]1CCCN1C(=O)[C@@H](N)CCCCN)C(=O)N[C@@H](Cc1ccccc1)C(=O)O (H-KPKRDGYMF-OH; N-terminus and C-terminus assumed),IC50,HLA-B07.02,28.2 nM
same,detected by mass spectrometry (peptide eluted from HLA-peptide complexes),[8],detected
CSCC[C@H](N)C(=O)N[C@@H](C)C(=O)N[C@@H](CC(N)=O)C(=O)NCC(=O)N[C@@H](CO)C(=O)N[C@@H](CC(C)C)C(=O)N[C@@H](CC(C)C)C(=O)N[C@@H](CC(N)=O)C(=O)N[C@@H](Cc1ccc(O)cc1)C(=O)O,IC50,HLA-A11.01 [1],536 nM
same,Stability (half-life (hr.)),HLA-A03.01 [2],14.3 min
same,Stability (half-life (hr.)),HLA-A01.01 [3]; [12],12.98 min
same,IC50,"HLA-A03.01 [4]; Affinity (nM), BTK C481S peptide, HLA Allele A03.01",35.6 nM
same,IC50,"HLA-A03.01 [4]; Observed Affinity (IC50, (nM)), allele A03.01",35.6 nM
same,IC50,"HLA-A01.01 [5]; Affinity (nM), BTK C481S peptide, HLA Allele A01.01",439 nM
same,IC50,HLA-A01.01 [5]; [14],439 nM
CC[C@H](C)[C@H](NC(=O)[C@@H](N)CCCCN)C(=O)N[C@@H](CCSC)C(=O)N[C@@H](Cc1ccccc1)C(=O)N[C@@H](C)C(=O)N[C@H](C(=O)N[C@@H](CC(C)C)C(=O)N[C@@H](CCC(N)=O)C(=O)N[C@@H](CCCNC(=N)N)C(=O)O)[C@@H](C)O (H-KIMFATLQR-OH; N-terminus and C-terminus assumed),detected by mass spectrometry (peptide eluted from HLA-peptide complexes),[9],detected
same,detected by mass spectrometry (peptide eluted from HLA-peptide complexes),[10],detected
same,IC50,HLA-A03.01 [4]; [13],2.5 nM
CC(C)[C@H](N)C(=O)N[C@H](C(=O)N[C@H](C(=O)NCC(=O)N[C@@H](C)C(=O)N[C@@H](CC(=O)O)C(=O)NCC(=O)N[C@H](C(=O)NCC(=O)N[C@@H](CCCCN)C(=O)O)C(C)C)C(C)C)C(C)C,Measured stability,HLA-A03.01 [2]; time for half of the complexes to dissociate at 37° C.,2.3 h
same,Measured stability,HLA-A11.01 [11],13.0 h
